Experimental data published in paper PMC9254247, “Dual-sensitive antibacterial peptide nanoparticles prevent dental caries” (Theranostics, 2022).
Values after ≈ are worked out from the molar mass of the structure shown. Like-named read-outs stand apart in the source and are kept apart here. No end group written: not given here.

Tests used:
[1] = test system: clinically isolated S.mutans strains; experiment: MIC against clinically isolated S. mutans strains; assay type: cell-based; conditions: Streptococcus mutans
From the text: Peptide and different pH of culture medium prepared. The pH of BHI medium […]
was adjusted by HCl and NaOH. […]
Isolation and culture of clinical S.mutans strains. Ethical approval of the study and the written consent/permission forms were obtained from Institutional Review Board (IRB) at Hunan Normal University prior to the study. For each child, written permission form was reviewed and signed by their legal guardians. Plaque -biofilm samples were collected from patients, including 16 Middle-aged and young patients and 4 children (age between 48 and 72 months) diagnosed with severe early childhood caries (S-ECC) in Changsha Stomatological Hospital. After being collected using a sterilized periodontal scaler, pooled plaque samples were transferred into 1 mL thiolglycollate solution, covered with 0.5 mL sterile paraffin wax and immediately transported to the laboratory for isolation. In order to sufficient disperse the aggregates, samples should be gently vortexed and sonicated before isolation. A series of diluted dispersed samples were plated on TYCSB at 37 °C under anaerobic conditions. Then, the suspicious clones were selected and plated on the mitis salivarius agar (MSA) plus bacitracin at 37 °C under anaerobic conditions for further isolation. The isolated S.mutans were most of identified by mass spectrometry and all identified by microbiochemical reaction again. All isolated S.mutans were stored with glycerol for subsequent experiments.
Minimal inhibition concentration (MIC) determination . S.mutans UA159 (ATCC 700610) and 20 clinical S.mutans strains were used. S.mutans UA159 was purchased from Shanghai Biofeng Biotechnology Co., LTD. These bacteria grown in brain heart infusion broth (BHI, Beijing Land Bridge, China) at 37 °C under anaerobic conditions.
Due to bacteria incubation under the condition of excessive acid for a long time will affect its vitality, therefore, pH 5.5 was choose as acidic condition for the MIC determination. Peptides and CHX were dissolved in BHI medium of different pHs (pH 5.5 and 7.0) using serial dilutions to obtain different diluted solutions. 2 µL of bacteria (1×10^7 CFU (colony forming units) in the logarithmic phase were added into each well of 96-well plates containing 200 µL different diluted solutions. Note that […]
the aggregate behavior of peptides. In order to avoid interfering with the MIC test, it is important to set up the control wells which only contain different concentrations of peptides in BHI medium of different pHs. The absorbance at 600 nm was detected with a microplate reader (Multiskan Spectrum, BioTek Inc., USA) after 48 h. The inhibition rate of drugs on bacteria was calculated based on the absorbance […]
The SYTO 9 / PI double staining and scanning electron microscopy (SEM) were also performed to evaluate the bacterial killing and bacterial membrane disruption.
For SYTO 9/PI double staining, pHly -1 NPs was added to actively growing S. mutans UA159 (10^6 CFU/m L) at the concentration of 22 μM at pH 4.5 or pH 7.0, after 1 h incubation, the bacteria treated were imaged by using LIVE/DEAD BacLight Bacterial Viability Kit (Thermo Fisher Scientific). SYTO 9 and PI were added according to the manufacturer ’s protocol and used for labeling […]
bacteria. […]
For SEM, S. mutans UA159 was treated by the same way to SYTO 9/PI double staining asay and then harvested, washed, and then fixed in 2.5 % glutaraldehyde for 3 h. After dehydration by serial concentrations of ethanol solutions (10%, 25%, 50%, 75%, 95%, and 100%) and lyophiliz ation overnight, the lyophilized samples were coated with goldand then photographed by SEM.

[2] = test system: human gingival fibroblast (HGF-1); experiment: Cytotoxicity, CCK-8 assay; assay type: cell-based; conditions: HGF1
From the text: Figure S12. H&E staining of gingival, palatal and gastric tissues(Scale bar: 100
Supplementary Fig.13. The toxicity of pHly -1 NPs to human gingival fibroblast
(HGF-1) was assessment by CCK-8 assay. DMEM medium(10 % FBS) was used
for cell culture and DMEM m edium was used for drug preparation in toxicity tests.
The All of the data are represented as average±SD. Each experiment consists of 3 […]

fresh mice erythrocytes = assay type: cell-based, mouse; conditions: 30 min, PBS pH 7.4
From the text: Peptide and different pH of culture medium prepared. The pH of BHI medium was adjusted by HCl and NaOH. All peptides, including lycosin- I, pHly-1, s-pHly-1 were synthesized on a Rink amide-AM resin using the SPPS
(9- fluorenyl-methoxycarbonyl solid-phase peptide synthesis) method as reported previously1. Then peptides were cleaved from the resin using TFA/1,2- ethanedithiol/thioanisole/anisole (90/5/3/2 (v/v)), precipitated in cold diethyl ether and the collected precipitate was dried by air -drying . The prepared peptides were purified by reverse phase- HPLC (RP-HPLC) and their molecular weights were determined by MALDI-TOF MS.
Hemolytic assay. Approximately 4 % (in volume) of the mouse erythrocyte s were prepared by diluting fresh erythrocytes to 25-fold dilution with PBS buffer (pH 7.4).
The stock peptide solution ([…]) diluted by PBS solution to reach various concentrations (200 μL) was placed in a 1.5 mL sterile microfuge tube, followed by the addition of 200 μ L o f erythrocyte suspension. The mixture was incubated at 37 °C for 30 min. Then, the mixture was centrifuged at 3,500 rpm for 5 min to collect the supernatant. Aliquots (100 μL) of the supernatant were removed to 96-well plates, and the absorbance was detected at 450 nm using a microplate reader (Multiskan Spectrum, BioTek Inc., USA). Untreated erythrocyte suspension in an equal volume of PBS solution and 0.1% Triton X-100 were used as the negative control and positive […]
Isolation and culture of clinical S.mutans strains. Ethical approval of the study and the written consent/permission forms were obtained from Institutional Review Board (IRB) at Hunan Normal University prior to the study. For each child, written permission form was reviewed and signed by their legal guardians. Plaque -biofilm samples were collected from patients, including 16 Middle-aged and young patients and 4 children (age between 48 and 72 months) diagnosed with severe early childhood caries (S-ECC) in Changsha Stomatological Hospital. […]

Work on `[H]/N=C(\N/C(=N/[H])NCCCCCCNC(=N)NC(=N)Nc1ccc(Cl)cc1)Nc1ccc(Cl)cc1` [CHX, chlorhexidine] yielded an MIC ([1]; pH 5.5, pH 5.5, range over 20 clinical strains, read-out: MIC values against 20 bacterial strains) of 0.5 to 2 µM (≈ 0.253 to 1.01 µg/mL), an MIC ([1]; pH 5.5, strain CS-1, pH 5.5, 5 repetitions, read-out: MIC) of 1 µM (≈ 0.505 µg/mL) and an MIC ([1]; pH 5.5, strain CS-2, pH 5.5, 5 repetitions, read-out: MIC) of 0.5 µM (≈ 0.253 µg/mL). The MIC ([1]; pH 5.5, strain CS-3, pH 5.5, 5 repetitions, read-out: MIC) was 1 µM (≈ 0.505 µg/mL), the MIC ([1]; pH 5.5, strain CS-4, pH 5.5, 5 repetitions, read-out: MIC) was 1 µM (≈ 0.505 µg/mL) and the MIC ([1]; pH 5.5, strain CS-5, pH 5.5, 5 repetitions, read-out: MIC) was 2 µM (≈ 1.01 µg/mL). It also gave an MIC ([1]; pH 5.5, strain CS-6, pH 5.5, 5 repetitions, read-out: MIC) of 1 µM (≈ 0.505 µg/mL), an MIC ([1]; pH 5.5, strain CS-7, pH 5.5, 5 repetitions, read-out: MIC) of 1 µM (≈ 0.505 µg/mL) and an MIC ([1]; pH 5.5, strain CS-8, pH 5.5, 5 repetitions, read-out: MIC) of 2 µM (≈ 1.01 µg/mL). The MIC ([1]; pH 5.5, strain CS-9, pH 5.5, 5 repetitions, read-out: MIC) was 2 µM (≈ 1.01 µg/mL), the MIC ([1]; pH 5.5, strain CS-10, pH 5.5, 5 repetitions, read-out: MIC) was 1 µM (≈ 0.505 µg/mL) and the MIC ([1]; pH 5.5, strain CS-11, pH 5.5, 5 repetitions, read-out: MIC) was 1 µM (≈ 0.505 µg/mL). The MIC ([1]; pH 5.5, strain CS-12, pH 5.5, 5 repetitions, read-out: MIC) was 0.5 µM (≈ 0.253 µg/mL), the MIC ([1]; pH 5.5, strain CS-13, pH 5.5, 5 repetitions, read-out: MIC) was 1 µM (≈ 0.505 µg/mL) and the MIC ([1]; pH 5.5, strain CS-14, pH 5.5, 5 repetitions, read-out: MIC) was 1 µM (≈ 0.505 µg/mL). It also gave an MIC ([1]; pH 5.5, strain CS-15, pH 5.5, 5 repetitions, read-out: MIC) of 2 µM (≈ 1.01 µg/mL), an MIC ([1]; pH 5.5, strain CS-16, pH 5.5, 5 repetitions, read-out: MIC) of 1 µM (≈ 0.505 µg/mL) and an MIC ([1]; pH 5.5, strain CS-17 (S-ECC child), pH 5.5, 5 repetitions, read-out: MIC) of 1 µM (≈ 0.505 µg/mL). It also gave an MIC ([1]; pH 5.5, strain CS-18 (S-ECC child), pH 5.5, 5 repetitions, read-out: MIC) of 2 µM (≈ 1.01 µg/mL), an MIC ([1]; pH 5.5, strain CS-19 (S-ECC child), pH 5.5, 5 repetitions, read-out: MIC) of 2 µM (≈ 1.01 µg/mL) and an MIC ([1]; pH 5.5, strain CS-20 (S-ECC child), pH 5.5, 5 repetitions, read-out: MIC) of 2 µM (≈ 1.01 µg/mL). It also gave an IC50 [2] of 4.9 µM.
In the case of “KIWFHAMHIIAHFIAHQHLHQHL-NH2 [pHly-1 NPs]”, the hemolysis (fresh mice erythrocytes; 500 μM) is reported as “about 20%” and the HC50 (fresh mice erythrocytes; 37 °C) is reported as greater than 500 µM.
